Laboratory results published in PMC10313808, “Lipoxygenase inhibitory synthetic derivatives of methyl gallate regulate gene expressions of COX-2 and cytokines to reduce animal model arthritis” (Scientific Reports, 2023).
pIC50, pKi: −log10 of the molar value. Read-outs that look alike come from different tables or passages of the source.

How the values were obtained:
[1] = molecular target: T1, Lipoxidase from Glycine max (15- LOX) (Glycine max, UniProt P08170); assay: Michaelis–Menten enzyme kinetics (Lineweaver-Burk); format: biochemical; conditions: for pIC50: Cheng–Prusoff from Ki
T1 construct: purchased Sigma (Sigma-Aldrich, UK)
T1 sequence (P08170 1-839): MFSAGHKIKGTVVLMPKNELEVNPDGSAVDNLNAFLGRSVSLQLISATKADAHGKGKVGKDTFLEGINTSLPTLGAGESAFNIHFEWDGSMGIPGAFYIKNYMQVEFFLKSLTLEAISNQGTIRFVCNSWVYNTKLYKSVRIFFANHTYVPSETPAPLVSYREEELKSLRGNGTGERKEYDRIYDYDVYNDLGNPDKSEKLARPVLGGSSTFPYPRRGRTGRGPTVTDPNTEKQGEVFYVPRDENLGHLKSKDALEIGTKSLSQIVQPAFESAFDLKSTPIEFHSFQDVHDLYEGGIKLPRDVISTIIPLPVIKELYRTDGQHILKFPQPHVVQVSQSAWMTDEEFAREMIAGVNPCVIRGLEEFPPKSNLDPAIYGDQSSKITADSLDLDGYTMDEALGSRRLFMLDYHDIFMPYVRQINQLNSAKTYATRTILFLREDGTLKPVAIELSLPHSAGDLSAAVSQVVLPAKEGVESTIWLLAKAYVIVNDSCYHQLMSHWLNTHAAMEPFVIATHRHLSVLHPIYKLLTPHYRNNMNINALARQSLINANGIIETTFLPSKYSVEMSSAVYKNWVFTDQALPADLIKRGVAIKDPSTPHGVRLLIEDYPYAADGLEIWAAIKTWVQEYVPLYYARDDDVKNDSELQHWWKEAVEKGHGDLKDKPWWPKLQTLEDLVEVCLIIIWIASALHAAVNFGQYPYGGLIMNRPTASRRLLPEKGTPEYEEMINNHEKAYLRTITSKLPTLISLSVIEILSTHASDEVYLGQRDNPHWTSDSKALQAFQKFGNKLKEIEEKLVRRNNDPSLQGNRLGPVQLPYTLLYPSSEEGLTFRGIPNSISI
Experimental: To identify the mode of inhibition, enzyme kinetics assay was performed with MGSDs. For the kinetic analysis different substrate concentrations of 18, 27, 36, 45, 54, 63 µM were prepared in 0.2 mM borate buffer (H 9)[16]. The assay mixture was made of 50 µL of LOX, 50 µL of the test solution and different concentrations of the substrate. The final volume was made upto 2 mL with corresponding borate buffer quantity. The activity of LOX was measured by the formation of […], which was monitored at 234 nm on spectrophotometer, (HITACHI U 2900, Japan). The reaction was measured at a time span of 300 s. The same experiment was repeated in the presence of 0.1, 0.08 and 0.06 μM concentration of MGSDs. The Line Weaver-Burk plot was constructed and Michaelis–Menten constant (Km) and Maximal Velocity (Vmax) were determined from the plot. From the Km and Vmax obtained, the inhibitor constant, Ki was calculated using the following equation derived from the Michaelis–Menten Equation: Km′=Km1+I0/Ki. The IC50was calculated using the Cheng–Prusoff equation, Ki=IC50/1+S/Km.

[2] = Solubility noted on sample preparation; format: physicochemical; conditions: water
[3] = molecular target: T1, Lipoxidase from Glycine max (15- LOX); set-up: method as in PMID 29847215; conditions: read-out: IC50 (LOX enzyme); previous study ref 16; cited from earlier work

| SMILES | pIC50 [1] | pIC50 ([1]; abstract) | pKi ([1]; linoleic acid substrate, competitive) | solubility [2] | pIC50 [3] |
| --- | --- | --- | --- | --- | --- |
| O=C(O)COc1cc(C(=O)O)cc(OCC(=O)O)c1OCC(=O)O [MGSD 1, 2,2′,2″-((5-carboxybenzene-1,2,3-triyl)tris(oxy)) tri acetic acid] | 6.99 | 7.00 | 7.52 | soluble in water | – |
| COC(=O)c1cc(O)c(O)c(O)c1 [Methyl gallate] | – | – | – | – | 4.51 |
